# Measured values from PubChem BioAssay (NCI).
# Where “and” joins values, the source holds several entries; their conditions need not be identical. Equal entries are not always repeated.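 Assay format: 96-well plates, 48-hour exposure. Abbreviation: GI50, concentration required for 50% inhibition of growth. TGI marks complete inhibition of growth.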 Where a SMILES comes first, the peptide text is derived from it. The star is where a group is joined. Boc = CC(C)(C)OC(=O)*
# Columns and labels:
# Assay in all cases: NCI tumour cell line growth inhibition, 48 h
# [1] = test system: NCI-H522 lung
# [2] = test system: MDA-MB-435
# [3] = test system: DU-145 prostate
# [4] = test system: OVCAR-4 ovarian
# [5] = test system: RXF 393 renal
# [6] = test system: CAKI-1 renal
# [7] = test system: OVCAR-8 ovarian
# [8] = test system: LOX IMVI melanoma
# [9] = test system: HCC-2998 colon
# [10] = test system: NCI-H226 lung
SMILES,GI50 [1],TGI [1] [µM],GI50 [2],TGI [2] [µM],GI50 [3],TGI [3] [µM],GI50 [4] [µM],TGI [4] [µM],GI50 [5] [µM],TGI [5] [µM],GI50 [6] [µM],TGI [6] [µM],GI50 [7] [µM],TGI [7] [µM],GI50 [8],TGI [8],GI50 [9],TGI [9],GI50 [10] [µM],TGI [10] [µM]
COc1ccc(Cn2c(N)c(S(=O)(=O)c3ccc(Cl)cc3)c3nc(C#N)c(C#N)nc32)cc1,5.82 µM,> 50,> 50 µM,> 50,20.2 µM,> 50,25.2,> 50,1.45,5.37,21.9,> 50,7.55,> 50,8.27 µM,38.3 µM,–,–,–,–
CCc1ccc(/C=C/c2ccc(O)c3ncccc23)[n+](C)c1,2.3 µM,> 100,4.49 µM,> 100,4.96 µM,> 100,5.6,> 100,> 100,> 100,39.2,> 100,0.668,> 100,35.8 µM,> 100 µM,> 30.5 µM,> 100 µM,> 22.4,> 100
Nc1c(C(=O)c2ccccc2)cnn1-c1ccc(F)cc1,> 25 µM,> 25,> 25 µM,> 25,> 25 µM,> 25,> 25,> 25,> 25,> 25,> 25,> 25,> 25,> 25,> 25 µM,> 25 µM,> 25 µM,> 25 µM,> 25,> 25
CN(C)c1ncnc2c1ncn2CCn1cnc2c(N(C)C)ncnc21,–,> 100,–,> 100,–,> 100,–,> 100,–,> 100,–,> 100,–,> 100,–,> 100 µM,–,> 100 µM,–,–
O=C(Nc1cc(C(F)(F)F)ccc1Cl)c1cccc(NC2=C(Cl)C(=O)N(Cc3ccccc3)C2=O)c1,6.8 µM,45.3,15.7 µM,> 100,54.4 µM,> 100,> 100,> 100,–,–,89.3,> 100,47.6,> 100,5.65 µM,> 100 µM,–,–,17.6,> 100
O=[P@@]1(c2ccccc2)O[C@H](COCc2ccccc2)[C@@H](OCc2ccccc2)[C@H](OCc2ccccc2)[C@H]1NCc1ccccc1,5.75 µM,> 100,2.92 µM,> 100,4.97 µM,> 100,3.47,48.9,3.83,> 100,2.15,8.66,3.24,> 100,3.25 µM,18.6 µM,4.26 µM,> 100 µM,3.43,85.2
CCc1c(Cl)c(C)cc(O)c1Cl,–,> 100,–,> 100,–,> 100,–,> 100,–,> 100,–,> 100,–,> 100,–,51.7 µM,–,26.7 µM,–,63.2
S=c1[nH]c2c(Cl)c(Cl)c(Cl)c(Cl)c2[nH]1,–,3.71,–,48.8,–,> 100,–,22.6,–,35.4,–,64.7,–,57.4,–,40.8 µM,–,23.6 µM,–,–
CC(C)=CCc1cc2c(cc1O)OC[C@H]1c3cc4c(cc3O[C@@H]21)OCO4,–,> 100,–,91.9,–,> 100,–,> 100,–,48.7,–,> 100,–,> 100,–,31.7 µM,–,–,–,69.7
CC1(C)N=C(N)N=C(N)N1c1ccc(CCCCc2ccc(Cl)c(S(=O)(=O)F)c2)c(Cl)c1,0.71 µM,13.3,0.431 µM,18.7,0.769 µM,16.5,4.51,49.7,5.93,27.8,1.82,10.5,0.557,24.5,0.13 µM,17.5 µM,0.922 µM,15.1 µM,4.18,37.6
CS(=O)(=O)Nc1cc(-c2ccc3ncnc(Nc4c(Cl)ccc5c4OCO5)c3c2)cnc1Cl,0.224 µM,2.56,0.251 µM,1.63,0.24 µM,5.01,0.348,4.45,0.143,0.575,0.053,0.869,0.387,–,0.172 µM,1.08 µM,0.262 µM,1.51 µM,0.309,3.54
Oc1ccc2ccccc2c1N=Nc1ccc(Br)cc1,–,> 100,–,> 100,–,> 100,–,96.3,–,> 100,–,> 100,–,> 100,–,> 100 µM,–,–,–,> 100
Cc1cc2cc3c(=O)[nH]c(=O)[nH]c3nc2cc1C,–,> 100,–,> 100,–,> 100,–,> 100,–,> 100,–,> 100,–,> 100,–,> 100 µM,–,–,–,> 100
Oc1ccc(Nc2c3ccccc3nc3occ(Cl)c23)cc1,2.37 µM,8.32,1.53 µM,6.51,22.4 µM,> 100,7.44,> 100,3.83,70.3,3.95,> 100,5.5,57.9,6.68 µM,> 100 µM,–,–,3.12,13.5
CC(C)=CCc1cc(O)cc2c1OC(C=C(C)C)C1=C2C(=O)C2=C(C1=O)S(=O)(=O)CCN2 (stereo not given),2.94 µM,7.03,3.05 µM,5.8,2.93 µM,5.37,2.77,6.72,3.02,12.5,–,–,3.09,6.72,3.48 µM,10.2 µM,5.53 µM,> 16.7 µM,4.75,> 16.7
Clc1nc(Cl)nc(Nc2cccc3ccccc23)n1,–,–,43.6 µM,> 100,> 100 µM,> 100,> 100,> 100,–,–,> 100,> 100,> 100,> 100,33.5 µM,> 100 µM,> 100 µM,> 100 µM,> 100,> 100
O=C(O)c1ccc(C(=O)O)c2c(C(=O)O)ccc(C(=O)O)c12,–,> 100,–,> 100,–,> 100,–,> 100,–,> 100,–,> 100,–,> 100,–,> 100 µM,–,–,–,> 100
CC(C(=O)O)c1cccc(Oc2ccccc2)c1 (stereo not given),> 100 µM,> 100,> 100 µM,> 100,> 100 µM,> 100,–,–,> 100,> 100,> 100,> 100,> 100,> 100,> 100 µM,> 100 µM,> 100 µM,> 100 µM,> 100,> 100
C#Cc1nc(Nc2cc(C)[nH]n2)c2ccccc2n1,0.476 µM,1.99,0.213 µM,0.563,0.396 µM,1.7,0.347,–,0.136,0.301,0.442,2.02,0.325,> 100,0.151 µM,0.308 µM,0.216 µM,0.466 µM,–,–
O=C1c2cc3c(cc2-c2c1c1cc(Cl)c(Cl)cc1c(=O)n2C[C@H](O)CO)OCO3,< 0.01 µM,0.122,0.0111 µM,0.168,< 0.01 µM,1.8,–,–,< 0.01,0.0378,–,–,< 0.01,1.16,< 0.01 µM,0.0117 µM,0.0451 µM,3.29 µM,< 0.01,0.0248
O=C(Nc1ccc(Cl)c(C(F)(F)F)c1)c1ccc(NC2=C(Cl)C(=O)N(Cc3ccccc3)C2=O)cc1,2.18 µM,5.54,19.1 µM,36.8,2.45 µM,6.71,11.4,69.9,–,–,19.4,38.6,3.66,> 100,1.24 µM,2.63 µM,–,–,23.1,53
COC(=O)C(C)NC(=O)C(CCSC)NC(=O)C(Cc1ccccc1)NC(=O)OC(C)(C)C (stereo not drawn) (Boc-Phe-Met-Ala-OMe; configuration not given here),13.1 µg/mL,–,39.2 µg/mL,> 100,43.7 µg/mL,> 100,–,> 100,–,–,–,> 100,–,> 100,20.3 µg/mL,43 µg/mL and > 100 µM,20.1 µg/mL,36.4 µg/mL and > 100 µM,–,> 100
COc1ccc(-c2cc(/C=C/C(=O)c3ccc(OC)c(OC)c3)[nH]n2)cc1,0.41 µM,1.39,1.84 µM,3.88,1.4 µM,2.81,0.509,3.87,1.39,2.94,1.55,3.52,2.16,10.4,–,–,2.02 µM,3.97 µM,–,–
Cc1ccc(Nc2oc(-c3ccccc3)nc2[P+](c2ccccc2)(c2ccccc2)c2ccccc2)cc1,0.45 µM,1.79,0.606 µM,1.97,1.34 µM,4.16,0.357,2.07,0.864,2.34,1.22,2.72,1.04,3.34,0.833 µM,2.11 µM,1.03 µM,2.4 µM,–,–
CC1(Br)Cc2ccccc2C1=O (stereo not given),0.318 µM,1.41,2.14 µM,12.4,–,33.6,2.14,8.43,–,–,1.75,3.86,4.11,15.7,0.533 µM,2.41 µM,–,> 100 µM,–,5.93
Cc1cc(N(CCCNc2ccnc3cc(Cl)ccc23)Cc2ccc3c(c2)OCO3)nc(N2CCOCC2)n1,0.185 µM,0.477,0.37 µM,1.78,0.353 µM,53.8,0.402,32.8,0.202,0.53,–,–,0.312,25.6,0.216 µM,0.534 µM,0.329 µM,13.1 µM,–,–
COc1ccc(-c2nnc(N3CCN(C(=O)CN4CCN(c5ccccc5)CC4)CC3)nc2-c2ccc(OC)cc2)cc1,7.44 µM,> 100,6.09 µM,> 100,13.4 µM,> 100,6.36,> 100,3.36,22.4,6.23,> 100,7.15,> 100,5.78 µM,> 100 µM,–,–,3.76,> 100
CC(C)OC(=O)[C@H](C)NP(=O)(OC[C@H]1O[C@@H](n2ccc(=O)[nH]c2=O)[C@](C)(F)[C@@H]1O)Oc1ccccc1 (stereo not given in full),> 100 µM,> 100,> 100 µM,> 100,> 100 µM,> 100,> 100,> 100,> 100,> 100,–,–,> 100,> 100,> 100 µM,> 100 µM,> 100 µM,> 100 µM,> 100,> 100
O=C1c2cccc3cccc(c23)C(=O)N1CCCCCN1CCN(CCCCCOc2ccc(-c3nc4ccc(N5CCOCC5)cc4[nH]3)cc2)CC1,> 49 µM,> 68.5,3.59 µM,13.2,14.7 µM,27.8,7.04,28.3,–,–,> 45.6,> 70.6,1.32,4.95,3.01 µM,7.97 µM,36.5 µM,> 91 µM,7.24,30.2
CC12CCC3c4ccc(O)cc4CCC3C1C/C(=N\O)C2O (stereo not given),–,> 100,–,> 100,–,> 100,–,> 100,–,> 100,–,> 100,–,> 100,–,> 100 µM,–,–,–,> 100
